Among the data in DBAASP are MIC values, retold here.

The term MIC denotes the lowest concentration found to suppress growth. A higher MIC goes with weaker potency.

Each structure is given as a SMILES string. Values after ≈ are worked out from the molar mass of the structure shown.

Among the test systems are Pseudomonas putida; Enterococcus sp. S13; Staphylococcus aureus; Bacillus subtilis; Candida krusei NCPF 3876; Klebsiella pneumoniae M6; Escherichia coli LEC001; Trichophyton rubrum; Candida albicans 38U; Candida albicans 01U.
What all share (assay): ≥ marks a high value that may be exact or a test limit, other limits are often not marked, values filed in µg/mL are converted to µM
The subject of assay [1] is Staphylococcus aureus AB94004.
Assay [2] relates to Micrococcus luteus AB2010179.
Assay [3] deals with Klebsiella oxytoca AB2010143.
For assay [4], the system named is Bacillus magaterium AB90008.
Assay [5] has as its system Salmonella enterica AB2010185.
Assay [6] deals with Escherichia coli DH5alpha.
Assay [7] has as its system Staphylococcus aureus 16472.
For assay [8], the system named is Candida tropicalis AY91009.
The subject of assay [9] is Enterobacter cloacae AB2010162.
Assay [10] concerns Acinetobacter baumannii CR17.
Assay [11] has as its system Acinetobacter baumannii CR86.
For assay [12], the system named is Acinetobacter baumannii Ab11.
Assay [13] deals with Candida tropicalis NCPF 8760.
The subject of assay [14] is Staphylococcus aureus ATCC 9144.
For assay [15], the system named is Escherichia coli ATCC 25922.
The test system of assay [16] is Escherichia coli NCTC 12923.
Assay [17] deals with Klebsiella pneumoniae NCTC 13368.
Assay [18] has as its system Pseudomonas aeruginosa NCTC 13437.
For assay [19], the system named is Candida parapsilosis NCPF 3209.
The subject of assay [20] is Candida glabrata NCPF 8018.
Assay [21] concerns Staphylococcus aureus NCTC 13616.
Assay [22] relates to Acinetobacter baumannii ATCC 17978.
For assay [23], the system named is Acinetobacter baumannii AYE.
In assay [24] the test system is Staphylococcus aureus ATCC 25923.
Assay [25] relates to Pseudomonas aeruginosa PAO1.
In assay [26] the test system is Staphylococcus aureus USA 300.
Assay [27] relates to Xanthomonas campestris pv. Vesicatoria 2133-2.
In assay [28] the test system is Erwinia amylovora PMV 6076.
For assay [29], the system named is Bacillus subtilis ATCC 6633.
In assay [30] the test system is Staphylococcus aureus ATCC 29213.
Assay [31] has as its system Enterococcus faecalis ATCC 12953.
For assay [32], the system named is Xanthomonas arboricola pv. pruni CFBP 5563.
In assay [33] the test system is Streptococcus pyogenes ATCC 19615.
Assay [34] relates to Salmonella enterica subsp. enterica serovar Typhimurium ATCC 14028.
The test system of assay [35] is Pseudomonas syringae pv. actinidiae Psa3700.1.1.
The test system of assay [36] is Klebsiella pneumoniae ATCC 13885.
The subject of assay [37] is Cryptococcus neoformans L26.
Assay [38] deals with Pseudomonas syringae pv. syringae EPS 94.
Assay [39] concerns Proteus mirabilis ATCC 25933.
Assay [40] has as its system Pseudomonas aeruginosa ATCC 15442.
In assay [41] the test system is Cryptococcus neoformans L30.
The subject of assay [42] is Xanthomonas fragariae Xf349-9A.
The test system of assay [43] is Escherichia coli ATCC 8739.
The test system of assay [44] is Trichophyton mentagrophytes.
Assay [45] relates to Candida parapsilosis ATCC 22019.

For `CC[C@H](C)[C@H](NC(=O)CNC(=O)[C@H](CC(N)=O)NC(=O)[C@H](Cc1c[nH]c2ccccc12)NC(=O)[C@@H](NC(=O)[C@@H](NC(=O)[C@H](CO)NC(=O)[C@H](CC(C)C)NC(=O)[C@@H](N)Cc1ccccc1)[C@@H](C)O)[C@@H](C)CC)C(=O)N[C@@H](CCCCN)C(=O)N[C@@H](CO)C(=O)N[C@@H](CC(C)C)C(=O)N[C@@H](CC(C)C)C(=O)O` [FLSTIWNGIKSLL], the MIC in assay [1] was 16 µM (≈ 23.9 µg/mL); in assay [2] it was 8 µM (≈ 11.9 µg/mL); in [3], at least 87 µM; in [4], 6 µM (≈ 8.95 µg/mL); in the assay on Pseudomonas putida it was at least 87 µM; against Enterococcus sp. S13, 4 µM (≈ 5.97 µg/mL). Besides, the MIC was at least 84 µM in assay [5]; at least 36 µM in assay [6]; 12 µM (≈ 17.9 µg/mL) in assay [7]; 17 µM (≈ 25.4 µg/mL) in assay [8]; at least 87 µM in assay [9].
As for `CC[C@H](C)[C@H](NC(C)=O)C(=O)N[C@@H](CC(N)=O)C(=O)N[C@@H](CC(C)C)C(=O)N[C@@H](CCCCN)C(=O)N[C@@H](C)C(=O)N[C@@H](CC(C)C)C(=O)N[C@@H](C)C(=O)N[C@@H](C)C(=O)N[C@@H](CC(C)C)C(=O)N[C@@H](C)C(=O)N[C@@H](CCCCN)C(=O)N[C@@H](CCCCN)C(=O)N[C@H](C(=O)N[C@@H](CC(C)C)C(N)=O)[C@@H](C)CC` [INLKALAALAKKIL], the values for the MIC in assay [10], in [11] and in assay [12] were 10.5 µM (≈ 16 µg/mL), 21 µM (≈ 31.9 µg/mL) and at least 42 µM, respectively.
As for `CC[C@H](C)[C@H](NC(=O)[C@@H](N)CCCCN)C(=O)N[C@@H](C)C(=O)N[C@@H](CCCCN)C(=O)N[C@H](C(=O)N[C@@H](C)C(=O)N[C@@H](CC(C)C)C(=O)N[C@@H](CCCCN)C(=O)N[C@@H](C)C(=O)N[C@@H](CC(C)C)C(N)=O)C(C)C` [KIAKVALKAL], the minimum inhibitory concentration (MIC) against Staphylococcus aureus is 64.3 µM (≈ 67.7 µg/mL); in assay [13], at least 121 µM; in assay [14], at least 121 µM; with Bacillus subtilis it was 13.7 µM (≈ 14.4 µg/mL); in assay [15], 22.4 µM (≈ 23.6 µg/mL); in the assay on Candida krusei NCPF 3876, at least 121 µM. For the same molecule, the MIC (in [16]; in assay [17]; in [18]; with Klebsiella pneumoniae M6; in assay [19]; with Escherichia coli LEC001) was at least 121 µM each time. The minimum inhibitory concentration (MIC) in [20] is at least 121 µM; in [21], at least 121 µM; in assay [22] it was at least 121 µM; in [23] it was at least 121 µM; in [24], 8.25 µM (≈ 8.69 µg/mL); in [25] it was over 121 µM. The same molecule showed an MIC in assay [26] of at least 121 µM.
In the case of `CSCC[C@H](NC(=O)CNC(=O)[C@H](CCC(N)=O)NC(=O)[C@H](C)NC(=O)[C@H](CCCN=C(N)N)NC(=O)CNC(=O)[C@H](C)NC(=O)[C@@H](NC(=O)[C@@H](N)CO)C(C)C)C(N)=O` [SVAGRAQGM], the minimum inhibitory concentration (MIC) was at least 50 µM in assay [27]; at least 50 µM in [28]; at least 36 µM in assay [29]; 18 µM (≈ 15.8 µg/mL) in [30]; at least 36 µM in [31]; at least 50 µM in [32]. For the same molecule, the MIC was at least 36 µM in [33]; 18 µM (≈ 15.8 µg/mL) in assay [34]; at least 50 µM in assay [35]; 9 µM (≈ 7.88 µg/mL) in assay [36]; 18 µM (≈ 15.8 µg/mL) in the assay with Trichophyton rubrum; 18 µM (≈ 15.8 µg/mL) in the assay on Candida albicans 38U. Further, the MIC in [37] is at least 144 µM; in assay [38], at least 50 µM; in [39], 18 µM (≈ 15.8 µg/mL); in assay [40], 9 µM (≈ 7.88 µg/mL); in [41] it was at least 144 µM; in [42] it was at least 50 µM. The MIC in assay [43] is 18 µM (≈ 15.8 µg/mL); against Candida albicans 01U, 18 µM (≈ 15.8 µg/mL); in assay [44], 18 µM (≈ 15.8 µg/mL); in assay [45] it was at least 144 µM.
